Tests used:
panelists = assay: Sensory properties of steviol glycosides in acidified water (pH 3.0) at 500 mg/L, 20 panelists; type: in vivo, human; settings: 500 ppm (sucrose 10,000 ppm); for Overall evaluation: Satisfactory, number of panelists / Quality of sweet taste (comment) / Quality of sweet taste: number of panelists giving the comment: acidified water pH 3.0, 20 panelists; for Astringent taste: number of panelists detected the attribute / Bitter taste: number of panelists detected the attribute / Licorice taste: number of panelists detected the attribute / Sweet Aftertaste: number of panelists detected the attribute: acidified water pH 3.0 by phosphoric acid, 20 panelists
Protocol: The sensory properties of Reb X were evaluated in acidified water (pH 3.0 by phosphoric acid) at 500 mg/L concentration by 20 panelists.

one experienced panelist = assay: Taste evaluation of Reb X against Reb A and Reb D, controlled multi-sip and swallow taste method; type: in vivo, human; settings: 500 ppm in citric buffer (pH 3.22)
Protocol: The taste properties of a sample of Reb X were studied against Rebaudioside A (Reb A) and Rebaudioside D (Reb D) samples. Reb A was obtained from Cargill (lot #1040) and Reb-D was obtained from PureCircle (lot #Nov. 3, 2008).
The samples were prepared at 500 ppm for sweetness evaluation by adding moisture compensated mass into a 100 mL sample of carbon-treated water and citric buffer solutions.
Citric buffer was prepared by mixing 1.171 g/L citric acid, 0.275 g/L sodium citrate and 0.185 g/L sodium benzoate with carbon-treated water, with a final pH of 3.22. The mixtures were moderately stirred at room temperature. The Reb X sample was then evaluated against the two control Reb A and Reb D samples in water and citric buffer at room temperature (RT) and at 4° C. in an ice bath by one experienced panelist for any tasting quality determinations using the controlled, multi-sip and swallow taste method shown below:
1. Take first sip (˜1.8 mL) of control and swallow. Wait for 15-25 sec, then take second sip of control and wait for 15-25 sec.
2. Take first sip of the experimental sample, wait for 15-25 sec, then take second sip. Compare to second sip of control.
3. Repeat steps #1 and #2 for the third and fourth sips of the control and experimental samples to confirm the initial finding.

In the case of C=C1C[C@@]23CC[C@H]4[C@@](C)(CCC[C@@]4(C)C(=O)O[C@@H]4O[C@H](CO)[C@@H](O)[C@H](O)[C@H]4O)[C@@H]2CC[C@]1(O[C@@H]1O[C@H](CO)[C@@H](O)[C@H](O[C@@H]2O[C@H](CO)[C@@H](O)[C@H](O)[C@H]2O)[C@H]1O[C@@H]1O[C@H](CO)[C@@H](O)[C@H](O)[C@H]1O)C3 [Reb A, Rebaudioside A], the “Overall evaluation: Satisfactory, number of panelists” value (“Overall evaluation: Satisfactory” below) (panelists) is reported as “(1 of 20)”, the “Quality of sweet taste (comment)” value (panelists) is reported as “Bitter” and the “Quality of sweet taste: number of panelists giving the comment” value (from here on “Quality … of panelists giving the comment”) (panelists) is reported as “(20 of 20)”. The “Astringent taste: number of panelists detected the attribute” value (panelists) was 20, the “Bitter taste: number of panelists detected the attribute” value (panelists) was 20 and the “Licorice taste: number of panelists detected the attribute” value (panelists) was 20. For the same compound, the “Sweet Aftertaste: number of panelists detected the attribute” value (panelists) was 20, the “Taste Properties” value (one experienced panelist; 4° C.) was “more sweet” and the “Taste Properties” value (one experienced panelist; room temperature) was “Delayed sweetness onset, significant lingering sweet”.

In the case of C=C1C[C@@]23CC[C@H]4[C@@](C)(CCC[C@@]4(C)C(=O)O[C@@H]4O[C@H](CO)[C@@H](O)[C@H](O)[C@H]4O[C@@H]4O[C@H](CO)[C@@H](O)[C@H](O)[C@H]4O)[C@@H]2CC[C@]1(O[C@@H]1O[C@H](CO)[C@@H](O)[C@H](O[C@@H]2O[C@H](CO)[C@@H](O)[C@H](O)[C@H]2O)[C@H]1O[C@@H]1O[C@H](CO)[C@@H](O)[C@H](O)[C@H]1O)C3 [Reb D, Rebaudioside D], the “Overall evaluation: Satisfactory” value (panelists) is reported as “(11 of 20)”, the “Quality of sweet taste (comment)” value (panelists) is reported as “Clean” and the “Quality … of panelists giving the comment” value (panelists) is reported as 9 of 20. For the same compound, the “Astringent taste: number of panelists detected the attribute” value (panelists) was 3, the “Bitter taste: number of panelists detected the attribute” value (panelists) was 3 and the “Licorice taste: number of panelists detected the attribute” value (panelists) was 2. The “Sweet Aftertaste: number of panelists detected the attribute” value (panelists) was 5 and the “Taste Properties” value (one experienced panelist; 4° C.) was “more sweet”.

C=C1C[C@@]23CC[C@H]4[C@@](C)(CCC[C@@]4(C)C(=O)O[C@@H]4O[C@H](CO)[C@@H](O)[C@H](O)[C@H]4O)[C@@H]2CC[C@]1(O[C@@H]1O[C@H](CO)[C@@H](O)[C@H](O)[C@H]1O[C@@H]1O[C@H](CO)[C@@H](O)[C@H](O)[C@H]1O)C3 [Stevioside] was tested, and the “Quality of sweet taste (comment)” value (panelists) was “Bitter” and the “Quality … of panelists giving the comment” value (panelists) was “(20 of 20)”.

In the case of OC[C@H]1O[C@@](CO)(O[C@H]2O[C@H](CO)[C@@H](O)[C@H](O)[C@H]2O)[C@@H](O)[C@@H]1O [Sucrose], the “Overall evaluation: Satisfactory” value (panelists) is reported as “(20 of 20)”, the “Quality of sweet taste (comment)” value (panelists) is reported as “Clean” and the “Quality … of panelists giving the comment” value (panelists) is reported as 20 of 20.

Source: US9169285B2, “Methods for purifying steviol glycosides and uses of the same” (The Coca-Cola Company, priority 2011, dated 2015)
